Results from ChEMBL document CHEMBL1201862, “PubChem BioAssay data set” (2004).
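Five concentrations, 48 hours, 96-well plates. GI50 marks 50% less growth.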 Activity calls are given as the source filed them. Cut-off read from the data, not from the text of the source: active = GI50 up to about 1.1 µM and inactive = higher.

Legend:
Test in all cases: DTP human tumour cell line panel, 48 h
RXF 393 = system: RXF 393
KM12 = system: KM12
LOX IMVI = system: LOX IMVI
K562 = system: K562
SK-MEL-2 = system: SK-MEL-2
T47D = system: T47D
OVCAR-8 = system: OVCAR-8
NCI-H522 = system: NCI-H522
SF-268 = system: SF-268
COLO 205 = system: COLO 205
SR = system: SR
M14 = system: M14
Hs-578T = system: Hs-578T
SK-MEL-28 = system: SK-MEL-28
HCT-116 = system: HCT-116
OVCAR-5 = system: OVCAR-5
NCI-H23 = system: NCI-H23
MDA-MB-231 = system: MDA-MB-231
ACHN = system: ACHN
SF-295 = system: SF-295

SMILES | GI50 (RXF 393) | GI50 (KM12) | GI50 (LOX IMVI) | GI50 (K562) | GI50 (SK-MEL-2) | GI50 (T47D) | GI50 (OVCAR-8) | GI50 (NCI-H522) | GI50 (SF-268) | GI50 (COLO 205) | GI50 (SR) | GI50 (M14) | GI50 (Hs-578T) | GI50 (SK-MEL-28) | GI50 (HCT-116) | GI50 (OVCAR-5) | GI50 (NCI-H23) | GI50 (MDA-MB-231) | GI50 (ACHN) | GI50 (SF-295)
COc1ccccc1NC(=S)N/N=C/c1ccccn1 | 10.9 µM (inactive) | 0.597 µM (active) | 0.0927 µM (active) | < 0.0187 µM (active) | 2.54 µM (inactive) | 0.0867 µM (active) | 0.131 µM (active) | < 0.0157 µM (active) | 0.191 µM (active) | 0.0352 µM (active) | 0.71 µM (active) | 0.0692 µM (active) | 14.3 µM (inactive) | 1.56 µM (inactive) | < 0.0204 µM (active) | 0.288 µM (active) | 0.0746 µM (active) | < 0.0166 µM (active) | 0.11 µM (active) | 0.621 µM (active)
CCC(C)OC(=O)/C(Br)=C1/OC(=O)c2ccccc2-c2ccccc21 (stereo not given) | 9.75 µM (inactive) | 23.8 µM (inactive) | 18.2 µM (inactive) | 4.42 µM (inactive) | 24.2 µM (inactive) | 58.2 µM (inactive) | 37.6 µM (inactive) | 18.7 µM (inactive) | 56.4 µM (inactive) | 18.3 µM (inactive) | > 10 µM (inactive) | 32.1 µM (inactive) | 45.4 µM (inactive) | 30.1 µM (inactive) | 17.6 µM (inactive) | 80 µM (inactive) | 50 µM (inactive) | > 10 µM (inactive) | 40.1 µM (inactive) | 35.6 µM (inactive)
O=C(OC1=CCN(Br)C1=O)C1=C(O)C(=O)N(Br)C1 | 20 µM (inactive) | 32.2 µM (inactive) | 20.9 µM (inactive) | 29.1 µM (inactive) | 26.4 µM (inactive) | 18.4 µM (inactive) | 31.3 µM (inactive) | 14.3 µM (inactive) | 24.9 µM (inactive) | 23.7 µM (inactive) | 21.4 µM (inactive) | 51.8 µM (inactive) | 27 µM (inactive) | 18.8 µM (inactive) | 17.8 µM (inactive) | 21.1 µM (inactive) | 32.4 µM (inactive) | 29.2 µM (inactive) | 33.9 µM (inactive) | 26.9 µM (inactive)
Cc1cc2c(Br)cc(Br)c(O)c2nc1C(=O)c1ccccc1 | > 47.5 µM (inactive) | 22.3 µM (inactive) | 10.4 µM (inactive) | 10.4 µM (inactive) | > 61.1 µM (inactive) | 8.17 µM (inactive) | 35 µM (inactive) | 13.5 µM (inactive) | 28.3 µM (inactive) | 21.4 µM (inactive) | 14.9 µM (inactive) | > 43.3 µM (inactive) | > 100 µM (inactive) | > 62.7 µM (inactive) | 12.4 µM (inactive) | > 45.1 µM (inactive) | 13.1 µM (inactive) | 20 µM (inactive) | 20.8 µM (inactive) | 10.6 µM (inactive)
O=c1cccccc1O [TROPOLONE] | 26.5 µM (inactive) | > 100 µM (inactive) | 34.7 µM (inactive) | 35.3 µM (inactive) | > 100 µM (inactive) | 52.8 µM (inactive) | 32.9 µM (inactive) | 33.3 µM (inactive) | 35.7 µM (inactive) | 39.6 µM (inactive) | 46.7 µM (inactive) | > 100 µM (inactive) | 91.8 µM (inactive) | > 100 µM (inactive) | 32 µM (inactive) | > 100 µM (inactive) | > 100 µM (inactive) | > 100 µM (inactive) | > 100 µM (inactive) | 93.3 µM (inactive)
CC(O)C1(CNc2cc(Cl)nc(N)n2)CCCC1 (stereo not given) | > 100 µM (inactive) | > 100 µM (inactive) | > 100 µM (inactive) | > 100 µM (inactive) | > 100 µM (inactive) | > 100 µM (inactive) | > 100 µM (inactive) | > 100 µM (inactive) | > 100 µM (inactive) | > 100 µM (inactive) | > 100 µM (inactive) | > 100 µM (inactive) | > 100 µM (inactive) | > 100 µM (inactive) | > 100 µM (inactive) | > 100 µM (inactive) | 90.4 µM (inactive) | > 100 µM (inactive) | > 100 µM (inactive) | > 100 µM (inactive)
C[C@]12CC[C@H]3[C@@H](CCC4=CC(=O)C=C[C@@]43OC(=O)C(F)(F)F)[C@@H]1CCC2=O | > 100 µM (inactive) | > 100 µM (inactive) | > 100 µM (inactive) | > 100 µM (inactive) | > 100 µM (inactive) | > 100 µM (inactive) | > 100 µM (inactive) | > 84.1 µM (inactive) | > 100 µM (inactive) | > 100 µM (inactive) | > 100 µM (inactive) | > 100 µM (inactive) | > 100 µM (inactive) | > 100 µM (inactive) | > 34.7 µM (inactive) | > 100 µM (inactive) | > 100 µM (inactive) | > 100 µM (inactive) | > 100 µM (inactive) | > 100 µM (inactive)
